From patent publication US20050261332A1, “Sulfonamides and uses thereof” (priority 2004, published 2005)

target: T1, GHS-R (Homo sapiens, UniProt Q92847); test: GHS-R competition binding assay (Ki of GHS-R antagonizing compounds)
T1 construct: expressed in transfected cells; host or cells: COS-7 cells
Method: One exemplary binding assay is as follows: GHS-R expressing COS-7 cells cultured at a density of 1×10^5 cells per well so that binding is assayed in the range of about 5-8 % binding of the radioactive ligand. For example, the cells can express an endogenous nucleic acid encoding GHS-R or an exogenous nucleic acid encoding GHS-R. Cells transfected with an exogenous nucleic acid encoding GHS-R can be used, e.g., two days, after transfection. Competition binding experiments are performed for 3 hours at 4° C. using 25 pM of ^125I-ghrelin in 0.5 ml of 50 mM HEPES buffer, pH 7.4, supplemented with 1 mM CaCl2, 5 mM MgCl2, and 0.1% (w/v) bovine serum albumin, 40 mg/ml bacitracin. Non-specific binding can be determined as the binding in the presence of […] of unlabeled ghrelin. Cells are washed twice in 0.5 ml of ice-cold buffer and then lysed with 0.5-1 ml of lysis buffer (8 M Urea, 2% NP40 in 3 M acetic acid). After washing and lysis, the bound radioactivity is counted. Assays can be run in duplicate or triplicate, e.g., to provide statistical power.
Values of the dissociation and inhibition constants (Kd and Ki) can be estimated from competition binding experiments using the equation: Kd=IC50-L and Ki=IC50/(1+L/Kd), where L is the concentration of radioactive ligand. Bmax values can be estimated from competition binding experiments using the equation Bmax=B0 IC50/[ligand], where B0 is the specifically bound radioligand.

T1 sequence (Q92847 whole entry, species assumed): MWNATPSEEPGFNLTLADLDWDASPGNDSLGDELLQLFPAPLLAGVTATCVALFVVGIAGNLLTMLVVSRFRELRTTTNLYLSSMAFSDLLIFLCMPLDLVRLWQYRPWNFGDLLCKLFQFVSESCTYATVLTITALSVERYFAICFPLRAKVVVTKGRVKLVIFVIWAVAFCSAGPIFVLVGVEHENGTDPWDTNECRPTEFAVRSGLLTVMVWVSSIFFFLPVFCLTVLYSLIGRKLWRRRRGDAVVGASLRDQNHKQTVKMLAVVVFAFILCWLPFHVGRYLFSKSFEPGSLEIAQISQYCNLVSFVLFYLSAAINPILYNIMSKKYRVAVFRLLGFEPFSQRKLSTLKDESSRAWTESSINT

Compound	Ki [µM]
CN(C)CCS(=O)(=O)N[C@H](COCc1ccccc1)C(=O)N1CCC2(CC1)CN(S(C)(=O)=O)c1ccccc12 [Compound 128, (R)-N-(3-(benzyloxy)-1-(1-(methylsulfonyl)spiro[indoline-3,4′-piperidine]-1′-yl)-1-oxopropan-2-yl)-2-(dimethylamino)ethanesulfonamide]	0.1 to 1
CN1CCN(CCS(=O)(=O)N[C@H](COCc2ccccc2)C(=O)N2CCC3(CC2)CN(S(C)(=O)=O)c2ccccc23)CC1 [Compound 129, (R)-N-(3-(benzyloxy)-1-(1-(methylsulfonyl)spiro[indoline-3,4′-piperidine]-1′-yl)-1-oxopropan-2-yl)-2-(4-methylpiperazin-1-yl)ethanesulfonamide]	> 1
CS(=O)(=O)N1CC2(CCN(C(=O)[C@@H](COCc3ccccc3)NS(=O)(=O)CCN3CCCC3)CC2)c2ccccc21 [Compound 136, (R)-N-(3-(benzyloxy)-1-(1-(methylsulfonyl)spiro[indoline-3,4′-piperidine]-1′-yl)-1-oxopropan-2-yl)-2-(pyrrolidin-1-yl)ethanesulfonamide]	0.1 to 1
CS(=O)(=O)N1CC2(CCN(C(=O)[C@@H](COCc3ccccc3)NS(=O)(=O)CCCN3CCOCC3)CC2)c2ccccc21 [Compound 142, (R)-N-(3-(benzyloxy)-1-(1-(methylsulfonyl)spiro[indoline-3,4′-piperidine]-1′-yl)-1-oxopropan-2-yl)-3-morpholinopropane-1-sulfonamide]	> 1
CC(C)(C)NCCCS(=O)(=O)N[C@H](COCc1ccccc1)C(=O)N1CCC2(CC1)CN(S(C)(=O)=O)c1ccccc12 [Compound 143, (R)-N-(3-(benzyloxy)-1-(1-(methylsulfonyl)spiro[indoline-3,4′-piperidine]-1′-yl)-1-oxopropan-2-yl)-3-(tert-butylamino)propane-1-sulfonamide]	0.1 to 1
CS(=O)(=O)N1CC2(CCN(C(=O)[C@@H](COCc3ccccc3)NS(=O)(=O)CCN3C4CCCC3CC4)CC2)c2ccccc21 [Compound 144, N-((R)-3-(benzyloxy)-1-(1-(methylsulfonyl)spiro[indoline-3,4′-piperidine]-1′-yl)-1-oxopropan-2-yl)-2-(8-azabicyclo[3.2.1]octan-8-yl)ethanesulfonamide]	0.1 to 1
CN1C2CCC1CC(S(=O)(=O)N[C@H](COCc1ccccc1)C(=O)N1CCC3(CC1)CN(S(C)(=O)=O)c1ccccc13)C2 (stereo partly drawn) [Compound 145, N-((R)-3-(benzyloxy)-1-(1-(methylsulfonyl)spiro[indoline-3,4′-piperidine]-1′-yl)-1-oxopropan-2-yl)-8-methyl-8-azabicyclo[3.2.1]octane-3-sulfonamide]	> 1
CS(=O)(=O)N1CC2(CCN(C(=O)[C@@H](COCc3ccccc3)NS(=O)(=O)CCCCl)CC2)c2ccccc21 [Compound 146, (R)-N-(3-(benzyloxy)-1-(1-(methylsulfonyl)spiro[indoline-3,4′-piperidine]-1′-yl)-1-oxopropan-2-yl)-3-chloropropane-1-sulfonamide]	< 0.1

The next lines start with the values.

Ki [µM]	Compound
0.1 to 1	CCN(C)CCS(=O)(=O)N[C@H](COCc1ccccc1)C(=O)N1CCC2(CC1)CN(S(C)(=O)=O)c1ccccc12 [Compound 130, (R)-N-(3-(benzyloxy)-1-(1-(methylsulfonyl)spiro[indoline-3,4′-piperidine]-1′-yl)-1-oxopropan-2-yl)-2-(ethyl(methyl)amino)ethanesulfonamide]
0.1 to 1	CC(C)N(C)CCS(=O)(=O)N[C@H](COCc1ccccc1)C(=O)N1CCC2(CC1)CN(S(C)(=O)=O)c1ccccc12 [Compound 131, (R)-N-(3-(benzyloxy)-1-(1-(methylsulfonyl)spiro[indoline-3,4′-piperidine]-1′-yl)-1-oxopropan-2-yl)-2-(isopropyl(methyl)amino)ethanesulfonamide]
< 0.1	CCN(CC)CCS(=O)(=O)N[C@H](COCc1ccccc1)C(=O)N1CCC2(CC1)CN(S(C)(=O)=O)c1ccccc12 [Compound 132, (R)-N-(3-(benzyloxy)-1-(1-(methylsulfonyl)spiro[indoline-3,4′-piperidine]-1′-yl)-1-oxopropan-2-yl)-2-(diethylamino)ethanesulfonamide]
> 1	CCN(CCS(=O)(=O)N[C@H](COCc1ccccc1)C(=O)N1CCC2(CC1)CN(S(C)(=O)=O)c1ccccc12)C(C)C [Compound 133, (R)-N-(3-(benzyloxy)-1-(1-(methylsulfonyl)spiro[indoline-3,4′-piperidine]-1′-yl)-1-oxopropan-2-yl)-2-(ethyl(isopropyl)amino)ethanesulfonamide]
> 1	CS(=O)(=O)N1CC2(CCN(C(=O)[C@@H](COCc3ccccc3)NS(=O)(=O)CCN3CCC3)CC2)c2ccccc21 [Compound 134, (R)-2-(azetidin-1-yl)-N-(3-(benzyloxy)-1-(1-(methylsulfonyl)spiro[indoline-3,4′-piperidine]-1′-yl)-1-oxopropan-2-yl)ethanesulfonamide]
0.1 to 1	CS(=O)(=O)N1CC2(CCN(C(=O)[C@@H](COCc3ccccc3)NS(=O)(=O)CCN3CCCCC3)CC2)c2ccccc21 [Compound 135, (R)-N-(3-(benzyloxy)-1-(1-(methylsulfonyl)spiro[indoline-3,4′-piperidine]-1′-yl)-1-oxopropan-2-yl)-2-(piperidin-1-yl)ethanesulfonamide]
< 0.1	CN1CCC(S(=O)(=O)N[C@H](COCc2ccccc2)C(=O)N2CCC3(CC2)CN(S(C)(=O)=O)c2ccccc23)CC1 [Compound 137, (R)-N-(3-(benzyloxy)-1-(1-(methylsulfonyl)spiro[indoline-3,4′-piperidine]-1′-yl)-1-oxopropan-2-yl)-1-methylpiperidine-4-sulfonamide]
> 1	CS(=O)(=O)N1CC2(CCN(C(=O)[C@@H](COCc3ccccc3)NS(=O)(=O)CCN3CCOCC3)CC2)c2ccccc21 [Compound 138, (R)-N-(3-(benzyloxy)-1-(1-(methylsulfonyl)spiro[indoline-3,4′-piperidine]-1′-yl)-1-oxopropan-2-yl)-2-morpholinoethanesulfonamide]
0.1 to 1	CC(C)(C)NCCS(=O)(=O)N[C@H](COCc1ccccc1)C(=O)N1CCC2(CC1)CN(S(C)(=O)=O)c1ccccc12 [Compound 139, (R)-N-(3-(benzyloxy)-1-(1-(methylsulfonyl)spiro[indoline-3,4′-piperidine]-1′-yl)-1-oxopropan-2-yl)-2-(tert-butylamino)ethanesulfonamide]
> 1	CC(C)NCCS(=O)(=O)N[C@H](COCc1ccccc1)C(=O)N1CCC2(CC1)CN(S(C)(=O)=O)c1ccccc12 [Compound 140, (R)-N-(3-(benzyloxy)-1-(1-(methylsulfonyl)spiro[indoline-3,4′-piperidine]-1′-yl)-1-oxopropan-2-yl)-2-(isopropylamino)ethanesulfonamide]
< 0.1	CC(C)NCCCS(=O)(=O)N[C@H](COCc1ccccc1)C(=O)N1CCC2(CC1)CN(S(C)(=O)=O)c1ccccc12 [Compound 141, (R)-N-(3-(benzyloxy)-1-(1-(methylsulfonyl)spiro[indoline-3,4′-piperidine]-1′-yl)-1-oxopropan-2-yl)-3-(isopropylamino)propane-1-sulfonamide]
0.1 to 1	CN1CCC(S(=O)(=O)N[C@H](COCc2ccccc2)C(=O)N2CCC3(C=Cc4ccccc43)CC2)CC1 [Compound 147, (R)-N-(3-(benzyloxy)-1-oxo-1-(spiro[indene-1,4′-piperidine]-1′-yl)propan-2-yl)-1-methylpiperidine-4-sulfonamide]
